From patent US11690860B2, “Treatment of HCV infected patients with cirrhosis” (Atea Pharmaceuticals, Inc., priority 2018, dated 2023)
Where “and” joins values, the source holds several entries; their conditions need not be identical. Equal values may be shown once. Entries after “also recorded” stand apart in the source; their conditions may differ. Where a name gives a salt, the structure may show the parent alone.

Tests used:
Assay type in all cases: in vivo, human
GT1b HCV [1] = experiment: Part B: single ascending dose study, HCV RNA reduction in non-cirrhotic GT1b HCV-infected subjects
Protocol: (§1) HCV-infected patients were treatment-naïve with HCV RNA ≥5 log 10 IU/mL. HCV RNA was quantified using COBAS® AmpliPrep TaqMAN® v2.0 with LLQ of 15 IU/mL. Plasma drug levels were measured using LC-MS/MS. […] Cirrhosis was confirmed by prior liver biopsy or Fibroscan >12.5 kPa. […] Mean ages of enrolled subjects were 44, 39, and 56 years in the non-cirrhotic GT1b 600 mg dose cohort, non-cirrhotic GT3 cohort, and the cirrhotic cohort, respectively.
Part A and Part B were previously conducted and described in WO 2018/144640. Part A and Part B were single ascending dose (SAD) studies.

HCV GT1, GT2, GT3 = experiment: All 600 mg QD cohorts (Parts C/D/E) taken together, plasma HCV RNA
Protocol: (§2) Doses were administered as the Compound 2 salt base. The free base Compound 1 equivalent is often given in parenthesis.
(§3) Part C was a randomized, double-blind, placebo-controlled MAD study divided into three cohorts. […] The dose escalation only proceeded following satisfactory review of the data.
as §1

[2] = Safety/tolerability in the study of Compound 2
Protocol: as §2, §3
However, this observation is consistent with previously published data showing rapid increase in lipids with HCV clearance upon initiation of DAA therapy in HCV-infected subjects.

GT3 HCV = experiment: Part D: 600 mg QD for 7 days, HCV RNA change in non-cirrhotic GT3 HCV-infected patients; conditions: for Individual HCV RNA maximum change from baseline / Mean ± SD HCV RNA maximum change from baseline / Mean ± SD HCV RNA change from baseline to 24 h: Part D; for Individual HCV RNA maximum change from baseline / Mean ± SD HCV RNA maximum change from baseline: NC GT3, 600 mg/day QD 7 days; for Mean ± SD HCV RNA maximum change from baseline / Mean ± SD HCV RNA change from baseline to 24 h: N=6; for Mean ± SD HCV RNA change from baseline to 24 h: NC GT3, 600 mg/day
Protocol: (§4) Doses were administered as the Compound 2 salt base. The free base Compound 1 equivalent is often given in parenthesis. […]
as §1

GT1b HCV [3] = experiment: Part C: multiple ascending dose study, 7 days QD, HCV RNA change in non-cirrhotic GT1 HCV-infected patients; conditions: for Mean ± SD HCV RNA maximum change from baseline / Individual HCV RNA maximum change from baseline / Mean ± SD HCV RNA change from baseline to 24 h: NC GT1b; for Mean ± SD HCV RNA maximum change from baseline / Mean ± SD HCV RNA change from baseline to 24 h: N=6
Protocol: as §2, §3, §1

[4] = Plasma pharmacokinetics of Compound 1 and metabolite 1-7 (LC-MS/MS) in Parts C, D and E; conditions: based on plasma exposures
Protocol: as §2, §3, §1
Plasma levels of metabolite 1-7 were measured using LC-MS/MS.

GT1, GT2, or GT3 HCV = experiment: Part E: 600 mg QD for 7 days, HCV RNA change in Child-Pugh A cirrhotic patients; conditions: for Mean Reduction After 24 hours: 600 mg; for Mean ± SD HCV RNA maximum change from baseline / Mean ± SD HCV RNA change from baseline to 24 h / Individual HCV RNA maximum change from baseline: Part E; for Mean ± SD HCV RNA maximum change from baseline: Child-Pugh A cirrhotic GT1/GT2/GT3, 600 mg/day QD 7 days; for Mean ± SD HCV RNA maximum change from baseline / Mean ± SD HCV RNA change from baseline to 24 h: N=6; for Mean ± SD HCV RNA change from baseline to 24 h: Child-Pugh A cirrhotic GT1/GT2/GT3, 600 mg/day
Protocol: as §4, §1

[5] = Part C, 600 mg/day QD 7 days, listed as Compd 2
[6] = GT1, Child-Pugh A, 600 mg QD 7 days, n=3
[7] = GT3, Child-Pugh A, 600 mg QD 7 days, n=1

## CNc1nc(N)nc2c1ncn2[C@@H]1O[C@H](CO[P@@](=O)(N[C@@H](C)C(=O)OC(C)C)Oc2ccccc2)[C@@H](O)[C@@]1(C)F [Compound 2, hemi-sulfate salt of isopropyl((S)-(((2R,3R,4R,5R)-5-(2-amino-6-(methylamino)-9H-purin-9-yl)-4-fluoro-3-hydroxy-4-methyltetrahydrofuran-2-yl)methoxy)(phenoxy)phosphoryl)-L-alaninate]
GT1b HCV [1]; 600 mg Compound 2 (equivalent of 550 mg Compound 1)
  Individual Max Reduction of HCV RNA: 2.1 log10 IU/ml and 2.3 log10 IU/ml and 2.6 log10 IU/ml
GT1b HCV [1]; 600 mg Compound 2 (equivalent of 550 mg Compound 1), n=3
  Mean Max Reduction of HCV RNA: 2.3 log10 IU/ml
GT1b HCV [1]; Compound 2 equivalent of 92 mg Compound 1
  Individual Max Reduction of HCV RNA: 0.6 log10 IU/ml and 0.8 log10 IU/ml and 0.9 log10 IU/ml
GT1b HCV [1]; Compound 2 equivalent of 92 mg Compound 1, n=3
  Mean Max Reduction of HCV RNA: 0.8 log10 IU/ml
GT1b HCV [1]; Compound 2 equivalent of 275 mg Compound 1
  Individual Max Reduction of HCV RNA: 1.1 log10 IU/ml and 1.8 log10 IU/ml and 2.2 log10 IU/ml
GT1b HCV [1]; Compound 2 equivalent of 275 mg Compound 1, n=3
  Mean Max Reduction of HCV RNA: 1.7 log10 IU/ml
GT1b HCV [1]; Compound 2 equivalent of 368 mg Compound 1
  Individual Max Reduction of HCV RNA: 1.8 log10 IU/ml and 2.2 log10 IU/ml and 2.6 log10 IU/ml
GT1b HCV [1]; Compound 2 equivalent of 368 mg Compound 1, n=3
  Mean Max Reduction of HCV RNA: 2.2 log10 IU/ml
HCV GT1, GT2, GT3; 600 mg QD, steady state, regardless of genotype or cirrhosis status
  reductions in plasma HCV RNA: −4.5 log10 IU/mL
HCV GT1, GT2, GT3; after the first 600 mg dose
  plasma HCV RNA decrease within the first 24 h of dosing: up to 2.4 log10 IU/mL
HCV GT1, GT2, GT3; cohorts receiving 600 mg QD, seven days of therapy
  subjects achieving HCV RNA below the lower limit of quantitation: ~30%
[2]; cirrhotic and non-cirrhotic HCV-infected subjects, up to 600 mg
  serious adverse events, dose-limiting toxicities, premature discontinuations: No serious adverse events (AEs), dose-limiting toxicities, or premature discontinuations were reported; also recorded: No serious adverse events, dose-limiting toxicities or premature discontinuations were observed
[2]; compared to placebo
  lipid abnormalities (cholesterol and triglyceride increase): higher incidence of mostly low-grade lipid abnormalities
[2]; during the treatment period
  ALT/AST values: decreased over time
[2]; in vivo
  AEs, laboratory parameters, ECGs and vital signs: no other clinically relevant, dose-related patterns
  liver injury: no findings suggestive of liver injury
[2]; up to 600 mg (salt form) for seven days
  tolerability: well tolerated
GT3 HCV; GT3 non-cirrhotic, 600 mg QD 7 days, n=6
  HCV RNA < LOQ (15 IU/mL), subjects: one subject achieved HCV RNA <LOQ within four days and 1/6
GT3 HCV
  Individual HCV RNA maximum change from baseline: 4.2 log10 IU/mL and 4.4 log10 IU/mL and 4.5 log10 IU/mL (2×) and 5.0 log10 IU/mL
  Mean ± SD HCV RNA maximum change from baseline: 4.5 log10 IU/mL
  Mean ± SD HCV RNA change from baseline to 24 h: 2.4 log10 IU/mL
GT3 HCV; listed as Compd 2
  Mean ± SD HCV RNA maximum change from baseline: 4.5 ± 0.3 log10 IU/mL
  Individual HCV RNA maximum change from baseline: 4.2 log10 IU/mL and 4.4 log10 IU/mL (2×) and 4.5 log10 IU/mL (2×) and 5.0 log10 IU/mL
  Mean ± SD HCV RNA change from baseline to 24 h: 2.3 ± 0.3 log10 IU/mL
GT1b HCV [3]; GT1 non-cirrhotic, 600 mg QD 7 days, n=6
  HCV RNA < LOQ (15 IU/mL), subjects: 3/6
GT1b HCV [3]; Part C, 600 mg QD 7 days
  subjects achieving HCV RNA <LOQ: 50%
GT1b HCV [3]; Part C, 150 mg/day QD 7 days
  Mean ± SD HCV RNA maximum change from baseline: 2.6 ± 1.1 log10 IU/mL
GT1b HCV [3]; Part C, 150 mg/day QD 7 days, listed as Compd 2
  Individual HCV RNA maximum change from baseline: 1.7 log10 IU/mL and 1.8 log10 IU/mL (2×) and 2.7 log10 IU/mL and 3.0 log10 IU/mL and 4.5 log10 IU/mL
GT1b HCV [3]; Part C, 150 mg/day
  Mean ± SD HCV RNA change from baseline to 24 h: 1.2 ± 0.3 log10 IU/mL
GT1b HCV [3]; Part C, 300 mg/day QD 7 days
  Mean ± SD HCV RNA maximum change from baseline: 4.0 ± 0.4 log10 IU/mL
GT1b HCV [3]; Part C, 300 mg/day QD 7 days, listed as Compd 2
  Individual HCV RNA maximum change from baseline: 3.4 log10 IU/mL and 3.7 log10 IU/mL and 3.9 log10 IU/mL and 4.2 log10 IU/mL (2×) and 4.5 log10 IU/mL
GT1b HCV [3]; Part C, 300 mg/day
  Mean ± SD HCV RNA change from baseline to 24 h: 1.9 ± 0.2 log10 IU/mL
GT1b HCV [3]; Part C, 600 mg/day QD 7 days
  Individual HCV RNA maximum change from baseline: 4.3 log10 IU/mL and 5.2 log10 IU/mL and 5.3 log10 IU/mL and 3.5 log10 IU/mL and 4.0 log10 IU/mL and 4.1 log10 IU/mL
GT1b HCV [3]; [5]
  Mean ± SD HCV RNA maximum change from baseline: 4.4 ± 0.7 log10 IU/mL
  Individual HCV RNA maximum change from baseline: 3.5 log10 IU/mL and 4.0 log10 IU/mL and 4.1 log10 IU/mL and 4.3 log10 IU/mL and 5.2 log10 IU/mL and 5.3 log10 IU/mL
GT1b HCV [3]; Part C, 600 mg/day
  Mean ± SD HCV RNA change from baseline to 24 h: 2.1 log10 IU/mL
GT1b HCV [3]; Part C, 600 mg/day, listed as Compd 2
  Mean ± SD HCV RNA change from baseline to 24 h: 2.1 ± 0.2 log10 IU/mL
[4]
  impact of mild hepatic impairment on PK: did not significantly impact
GT1, GT2, or GT3 HCV; 600 mg/day QD 7 days, Part E vs Parts C and D
  antiviral activity / HCV RNA change in cirrhotic compared with non-cirrhotic subjects: similar
GT1, GT2, or GT3 HCV; [6]
  HCV RNA < LOQ (15 IU/mL), subjects: 1/3
  Mean Max Reduction: 4.2 log10 IU/mL
GT1, GT2, or GT3 HCV; GT1, Child-Pugh A, n=3
  Mean Reduction After 24 hours: 2.4 log10 IU/mL
GT1, GT2, or GT3 HCV; GT1, GT2, and GT3
  activity against HCV genotypes in cirrhotic patients: active
GT1, GT2, or GT3 HCV; [7]
  HCV RNA < LOQ (15 IU/mL), subjects: 0/1
  Mean (Individual) Max Reduction: 4.8 log10 IU/mL
GT1, GT2, or GT3 HCV; GT3, Child-Pugh A, n=1
  Mean Reduction After 24 hours: 2.2 log10 IU/mL
GT1, GT2, or GT3 HCV
  Mean ± SD HCV RNA maximum change from baseline: 4.6 log10 IU/mL and 4.5 log10 IU/mL
  Mean ± SD HCV RNA change from baseline to 24 h: 2.4 log10 IU/mL
GT1, GT2, or GT3 HCV; listed as Compd 2
  Mean ± SD HCV RNA maximum change from baseline: 4.6 ± 0.5 log10 IU/mL
  Mean ± SD HCV RNA change from baseline to 24 h: 2.4 ± 0.2 log10 IU/mL
GT1, GT2, or GT3 HCV; cirrhotic GT1b, 600 mg/day QD 7 days
  Individual HCV RNA maximum change from baseline: 4.0 log10 IU/mL and 4.1 log10 IU/mL and 4.5 log10 IU/mL
GT1, GT2, or GT3 HCV; cirrhotic GT1b, 600 mg/day QD 7 days, listed as Compd 2
  Individual HCV RNA maximum change from baseline: GT1b: 4.0, log10 IU/mL and 4.1 log10 IU/mL and 4.5 log10 IU/mL
GT1, GT2, or GT3 HCV; cirrhotic GT2, 600 mg/day QD 7 days
  Individual HCV RNA maximum change from baseline: GT2: 4.8 log10 IU/mL
GT1, GT2, or GT3 HCV; cirrhotic GT3, 600 mg/day QD 7 days, listed as Compd 2
  Individual HCV RNA maximum change from baseline: 5.1 log10 IU/mL and 5.2 log10 IU/mL
